Among the test systems are SN12C renal; SK-OV-3 ovarian; NCI-H460 lung; HCT-15 colon; 786-0 renal; UACC-257 melanoma; RXF 393 renal; KM12 colon; EKVX NSCLC; HS 578T breast.
Common to all, as to experiment: NCI anticancer screen, dose series, 48 h

Molecules are shown by their SMILES.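 Protocol summary: plate cells (96-well), add compound at 5 concentrations, incubate 48 h, interpolate endpoints linearly. GI50: concentration for 50% inhibition of growth. TGI: total growth inhibition.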

`CC(=O)OCC(OC(C)=O)C(OC(C)=O)C(OC(C)=O)C(=O)CNn1c(-c2ccccc2Cl)nc2ccccc2c1=O` (stereo not given): the TGI in the assay on SN12C renal, with SK-OV-3 ovarian, in the assay on NCI-H460 lung, with HCT-15 colon, with 786-0 renal and with UACC-257 melanoma was above 100 µM throughout. The TGI with RXF 393 renal, with KM12 colon and in the assay with EKVX NSCLC was above 100 µM in each case.

On to `COc1ccc(/C=C2\CCCC(C(NO)c3ccc(OC)cc3)C2=NO)cc1` (stereo not given), for which the TGI in the assay with SN12C renal, with SK-OV-3 ovarian, in the assay with NCI-H460 lung, in the assay on HCT-15 colon, in the assay with 786-0 renal and in the assay on UACC-257 melanoma was above 100 µM each time. Also, the results for the TGI with RXF 393 renal, in the assay on KM12 colon and in the assay with EKVX NSCLC were 96.7 µM, above 100 µM and above 100 µM, respectively.

Turning to `COc1ccc(-c2ccc(-c3ccc(C(=N)N)cn3)o2)cc1`, the GI50 was 8.01 µM in the assay on SN12C renal; 10.2 µM in the assay on SK-OV-3 ovarian; 3.69 µM in the assay with NCI-H460 lung; 4.62 µM in the assay on HCT-15 colon; 10.9 µM in the assay with HS 578T breast; 6.02 µM with 786-0 renal. Besides, the GI50 was 2.18 µM with UACC-257 melanoma, 7.01 µM with RXF 393 renal and 4.41 µM in the assay with KM12 colon. The TGI was 22.5 µM in the assay with SN12C renal; 21.8 µM with SK-OV-3 ovarian; 14 µM with NCI-H460 lung; 17.7 µM with HCT-15 colon; 36.7 µM in the assay with HS 578T breast; 18.8 µM in the assay on 786-0 renal. For the same molecule, the figures for the TGI with UACC-257 melanoma, with RXF 393 renal and with KM12 colon were 4.69 µM, 20 µM and 15.5 µM, respectively.

Turning to `Nc1ccccc1C#C/C=C\C#Cc1ccccc1`, the GI50 in the assay on SN12C renal was 13.4 µM; with SK-OV-3 ovarian, 32 µM; with NCI-H460 lung, 18.4 µM; with HCT-15 colon, 26.2 µM; with 786-0 renal it was 16.3 µM; with UACC-257 melanoma, 27.7 µM. The values for the GI50 in the assay with RXF 393 renal, with KM12 colon and in the assay on EKVX NSCLC were 29.9 µM, 4.51 µM and 15.3 µM, respectively. The TGI was 29.7 µM with SN12C renal; 81.3 µM in the assay with SK-OV-3 ovarian; 52.6 µM with NCI-H460 lung; 92.3 µM in the assay with HCT-15 colon; 40.9 µM with 786-0 renal; above 100 µM in the assay on UACC-257 melanoma. Moreover, the TGI with RXF 393 renal was above 100 µM; in the assay with KM12 colon, 20.2 µM; in the assay with EKVX NSCLC it was 41.1 µM.

`CC[C@]1(O)C(=O)OCc2c1cc1n(c2=O)Cc2cc3c(N)cccc3nc2-1`: the TGI in the assay with SN12C renal, in the assay on SK-OV-3 ovarian, in the assay on NCI-H460 lung, in the assay with HCT-15 colon, in the assay on 786-0 renal and in the assay with UACC-257 melanoma was above 100 µM in each case. Also, the TGI in the assay on RXF 393 renal, in the assay with KM12 colon and with EKVX NSCLC was above 100 µM throughout.

`Cc1c(C(=O)NCCN2CCOCC2)cn2ncnc(Oc3ccc(NC(=O)Nc4ccc(Cl)c(C(F)(F)F)c4)cc3)c12`: the GI50 is 1.16 µM in the assay on NCI-H460 lung; 1.44 µM with HCT-15 colon; 1.48 µM in the assay with HS 578T breast; 1.67 µM with 786-0 renal; 1.22 µM in the assay on RXF 393 renal. Also, the TGI in the assay with NCI-H460 lung was determined as 2.8 µM; with HCT-15 colon, 2.98 µM; with HS 578T breast it was 3.99 µM; in the assay with 786-0 renal, 3.33 µM; in the assay with RXF 393 renal, 2.73 µM.

As to `OC1(c2ccccc2)OC(C#Cc2ccccc2)(c2ccccc2)c2ccccc21` (stereo not given), the TGI in the assay on SN12C renal worked out at 10.2 µM; with SK-OV-3 ovarian it was 5.04 µM; in the assay with NCI-H460 lung, 17.7 µM; in the assay with HCT-15 colon, 13.1 µM; in the assay on 786-0 renal, 13.5 µM; in the assay with UACC-257 melanoma it was 20.9 µM. In addition, the TGI in the assay on RXF 393 renal turned out to be 5.58 µM; in the assay on KM12 colon, 2.99 µM; in the assay with EKVX NSCLC, 11.9 µM.

Turning to `CN1CC[C@]2(C)c3ccc(O)cc3CC3CCCC1C32C` (stereo not given in full), the TGI with SN12C renal, with SK-OV-3 ovarian, with NCI-H460 lung, with HCT-15 colon, in the assay with 786-0 renal and in the assay on UACC-257 melanoma was above 100 µM in each case. The TGI in the assay with RXF 393 renal, in the assay on KM12 colon and with EKVX NSCLC was above 100 µM in each case.

For the molecule `COC(=O)c1nc(Cl)nc(Cl)c1Cl`, the TGI is 45.1 µM in the assay on SN12C renal; above 100 µM in the assay on SK-OV-3 ovarian; above 100 µM in the assay on NCI-H460 lung; 46.9 µM with HCT-15 colon; 85 µM in the assay on HS 578T breast; 33.1 µM in the assay on 786-0 renal. The TGI with RXF 393 renal turned out to be 28.2 µM; in the assay on KM12 colon, 47.3 µM.

For the molecule `C/C=C/C=C/C=C/C=C/C(=O)O`, the TGI in the assay on SN12C renal, in the assay with SK-OV-3 ovarian, in the assay on NCI-H460 lung, with HCT-15 colon, in the assay with 786-0 renal and in the assay on UACC-257 melanoma was above 100 µM in each case. For the same molecule, the TGI with RXF 393 renal, with KM12 colon and in the assay with EKVX NSCLC was above 100 µM in each case.

Take `Cc1ccc(-c2cc(-c3ccccc3)c(C#N)c(=O)n2C2OC(CO)C(O)C(O)C2O)cc1` (stereo not given): the TGI in the assay with SN12C renal, in the assay with SK-OV-3 ovarian, with NCI-H460 lung, in the assay with HCT-15 colon, with 786-0 renal and in the assay with UACC-257 melanoma was above 100 µM in each case. For the same molecule, the TGI in the assay on RXF 393 renal, in the assay with KM12 colon and in the assay with EKVX NSCLC was above 100 µM throughout.

As to `COC1C2C=CC(C2)[C@H]1[N+](=O)[O-]` (stereo not given in full), the TGI in the assay on SN12C renal, with SK-OV-3 ovarian, in the assay on NCI-H460 lung, in the assay with HCT-15 colon, in the assay on 786-0 renal and in the assay with UACC-257 melanoma was above 100 µM each time. In addition, the TGI in the assay with RXF 393 renal, in the assay on KM12 colon and with EKVX NSCLC was above 100 µM each time.

As to `Cc1cccc(-n2c(=S)[nH]c3c(sc(=O)n3-c3ccccc3C)c2=O)c1`, the TGI in the assay on SN12C renal, in the assay with SK-OV-3 ovarian, with NCI-H460 lung, in the assay with HCT-15 colon, in the assay with 786-0 renal and in the assay on UACC-257 melanoma was above 100 µM each time. For the same molecule, the TGI with RXF 393 renal, in the assay on KM12 colon and in the assay on EKVX NSCLC was above 100 µM in each case.

The values above are taken from PubChem BioAssay (NCI).
